Two compounds from ChEMBL document CHEMBL4837249, “Discovery of Potent Antiallergic Agents Based on an o-Aminopyridinyl Alkynyl Scaffold” (J Med Chem, 2021) can be followed below.

The target in data set [1] is Tyrosine-protein kinase JAK1 (Homo sapiens) (UniProt P23458). Nature of the data set: Inhibition of human recombinant JAK1 at 5 nM radiometric scintillation counting analysis relative to control.
Data set [2] is described as follows: Toxicity in anti-DNP IgE sensitized BALB/c mouse assessed as body weight loss at 40 mg/kg, po. The format is organism-based. The conditions noted are these: in vivo.
The subject of data set [3] is RBL-2H3. Briefly: Antiallergic activity against anti-DNP-IgE sensitized rat RBL-2H3 cells assessed as […] of degranulation by measuring beta-hexosaminidase release using P-nitrophenyl-N-acetyl-D-glucosamide as substrate at 0.04 uM measured after 1 hr by microplate reader relative to control. The format is functional.
Data set [4] in a line: MRT in BALB/c mouse at 2 mg/kg, iv measured up to 24 hrs by LC-MS/MS analysis. The format is ADME, organism-based. Conditions: in vivo.
Data set [5] has as its system Mus musculus. Briefly: Antiallergic activity against anti-DNP IgE sensitized house dust mite-induced BALB/c mouse pulmonary allergic inflammation model assessed as by reduction in serum total IgE level at 40 mg/kg, po measured every 5 mins for 60 mins. The format is functional, organism-based.
Data set [6] deals with Proto-oncogene tyrosine-protein kinase Src (Rattus norvegicus) (UniProt Q9WUD9). Nature of the data set: Inhibition of Src phosphorylation in rat RBL-2H3 cells assessed as inhibition of Fc epsilonRI-mediated signal transduction by Western blot analysis. The conditions noted are these: dose 8-200 nM. Format: cell-based.
A short description of data set [7]: Tmax in BALB/c mouse at 20 mg/kg, po measured up to 24 hrs by LC-MS/MS analysis. The format is ADME, organism-based. The conditions noted are these: in vivo.
Data set [8] is described as follows: Toxicity in anti-DNP IgE sensitized BALB/c mouse assessed as vomiting at 40 mg/kg, po. The format is organism-based. The conditions noted are these: in vivo.
The test system of data set [9] is Mus musculus. Briefly: Antiallergic activity against anti-DNP IgE sensitized passive systemic anaphylaxis-induced BALB/c mouse pulmonary allergic inflammation model assessed as by decrease in body temperature drop at 40 mg/kg, po measured every 5 mins for 60 mins. The format is functional, organism-based.
Data set [10] in a line: Half life in BALB/c mouse at 2 mg/kg, iv measured up to 24 hrs by LC-MS/MS analysis. Format: ADME, organism-based. Conditions: in vivo.
A short description of data set [11]: Toxicity in anti-DNP IgE sensitized BALB/c mouse assessed as hemorrhage at 40 mg/kg, po. Format: organism-based. The conditions noted are these: in vivo.
Data set [12] can be described thus: AUC (0 to t) in BALB/c mouse at 20 mg/kg, po measured up to 24 hrs by LC-MS/MS analysis. Format: ADME, organism-based. Also on record: route oral, dose 20 mg/kg, time <=24. Conditions: in vivo.
The test system of data set [13] is RBL-2H3. Briefly: Inhibition of Akt phosphorylation in rat RBL-2H3 cells assessed as inhibition of Fc epsilonRI-mediated signal transduction by Western blot analysis. Conditions: dose 8-200 nM. The format is cell-based.
Data set [14] is described as follows: Volume of distribution at steady state in BALB/c mouse at 2 mg/kg, iv measured up to 24 hrs by LC-MS/MS analysis. The conditions noted are these: in vivo, read-out: Vdss. Format: ADME, organism-based.
Data set [15] in a line: Toxicity in anti-DNP IgE sensitized BALB/c mouse assessed as piloerection at 40 mg/kg, po. The format is organism-based. The conditions noted are these: in vivo.
A short description of data set [16]: Half life in BALB/c mouse at 20 mg/kg, po measured up to 24 hrs by LC-MS/MS analysis. Format: ADME, organism-based. The conditions noted are these: in vivo.

The structures appear in SMILES notation. The source made the active and inactive calls. The rule behind the calls is not given here.

Proto-oncogene tyrosine-protein kinase Src (Rattus norvegicus), sequence (Q9WUD9 2-536 limits assumed): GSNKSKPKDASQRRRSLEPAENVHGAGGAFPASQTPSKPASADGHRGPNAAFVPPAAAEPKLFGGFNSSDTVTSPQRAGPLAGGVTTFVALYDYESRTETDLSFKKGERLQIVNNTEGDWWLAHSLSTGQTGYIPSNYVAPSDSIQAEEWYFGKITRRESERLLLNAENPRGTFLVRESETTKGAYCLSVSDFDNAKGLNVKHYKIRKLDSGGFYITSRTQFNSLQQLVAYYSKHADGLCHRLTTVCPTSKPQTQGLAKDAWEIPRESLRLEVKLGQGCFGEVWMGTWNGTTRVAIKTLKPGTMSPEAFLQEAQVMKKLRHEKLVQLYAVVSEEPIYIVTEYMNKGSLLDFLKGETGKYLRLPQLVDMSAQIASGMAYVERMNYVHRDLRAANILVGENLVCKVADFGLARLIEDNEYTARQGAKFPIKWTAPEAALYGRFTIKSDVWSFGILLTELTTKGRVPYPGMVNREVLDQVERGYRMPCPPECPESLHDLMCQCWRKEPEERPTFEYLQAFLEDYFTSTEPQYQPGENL
Tyrosine-protein kinase JAK1 (Homo sapiens), sequence (P23458 whole entry): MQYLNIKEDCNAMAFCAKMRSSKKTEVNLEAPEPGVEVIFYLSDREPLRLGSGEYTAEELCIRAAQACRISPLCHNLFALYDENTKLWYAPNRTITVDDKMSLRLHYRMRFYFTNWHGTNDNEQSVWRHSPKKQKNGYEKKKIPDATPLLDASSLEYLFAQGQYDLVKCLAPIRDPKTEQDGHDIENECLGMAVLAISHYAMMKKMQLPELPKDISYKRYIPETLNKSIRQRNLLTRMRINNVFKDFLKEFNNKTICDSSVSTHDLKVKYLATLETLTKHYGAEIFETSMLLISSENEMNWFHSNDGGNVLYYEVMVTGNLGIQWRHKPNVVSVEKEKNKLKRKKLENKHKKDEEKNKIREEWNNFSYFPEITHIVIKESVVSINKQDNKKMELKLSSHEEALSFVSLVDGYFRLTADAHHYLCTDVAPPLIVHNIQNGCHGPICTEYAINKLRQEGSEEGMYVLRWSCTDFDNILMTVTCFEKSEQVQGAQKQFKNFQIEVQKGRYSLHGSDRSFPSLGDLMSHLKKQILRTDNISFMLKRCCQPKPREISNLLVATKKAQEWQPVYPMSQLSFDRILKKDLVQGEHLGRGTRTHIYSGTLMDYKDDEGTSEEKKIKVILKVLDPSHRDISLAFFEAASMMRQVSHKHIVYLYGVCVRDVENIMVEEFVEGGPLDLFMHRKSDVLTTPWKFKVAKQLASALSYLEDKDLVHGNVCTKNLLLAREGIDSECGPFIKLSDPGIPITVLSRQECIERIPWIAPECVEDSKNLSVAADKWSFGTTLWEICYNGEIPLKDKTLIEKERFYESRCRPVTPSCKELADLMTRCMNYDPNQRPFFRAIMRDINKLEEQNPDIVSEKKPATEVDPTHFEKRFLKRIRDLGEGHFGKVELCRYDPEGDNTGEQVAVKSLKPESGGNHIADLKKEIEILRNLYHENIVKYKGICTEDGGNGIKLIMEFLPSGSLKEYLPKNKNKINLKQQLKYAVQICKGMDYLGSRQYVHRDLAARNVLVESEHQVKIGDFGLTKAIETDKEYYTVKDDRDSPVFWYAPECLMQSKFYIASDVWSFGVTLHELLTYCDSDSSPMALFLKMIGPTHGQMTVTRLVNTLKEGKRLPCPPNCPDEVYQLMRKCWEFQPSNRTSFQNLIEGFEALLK

As for `Cc1ccc(C(=O)Nc2ccc(Cl)cc2Cl)cc1C#Cc1cc(-c2cnn(C)c2)cnc1N`, in data set [1], the inhibition is 14%.

For the compound `Cc1ccc(C(=O)Nc2cc(C(F)(F)F)cc(C(F)(F)F)c2)cc1C#Cc1cc(-c2cnn(C)c2)cnc1N`, the Activity result in data set [2], in data set [8], in data set [11] and in data set [15] was “Non-Toxic” throughout. In addition, in the data set on RBL-2H3 [3], the inhibition at 0.04 µM turned out to be 112%. Also, the MRT in data set [4] was 4.4 h. For the same compound, the result with Mus musculus [5] and in the data set with Mus musculus [9] was Active. The inhibition result (in [6]; in the data set with RBL-2H3 [13]) was “Dose-Dependent Effect” throughout. Also, the time of peak concentration (Tmax) in [7] was found to be 2.67 h. In addition, the results for the half-life in data set [10] and in data set [16] were 5.57 h and 6.9 h, respectively. The AUC(0-t) at 24 h in data set [12] is 21.3 µg·h/mL. Besides, the Vd in [14] is 4 L/kg.
